Assay results reported in patent publication US10233173B2, “Substituted 1,2,3-triazoles as NR2B-selective NMDA modulators” (JANSSEN PHARMACEUTICA NV, priority 2016, dated 2019).

Each compound was assayed against human GluN1/GluN2B NMDA receptors (Homo sapiens, UniProt Q05586+Q13224) (assay: Cell-based calcium flux (FLIPR) assay on cloned human NR1/NR2B ion channels expressed in mammalian cells). Settings: standard assay; glutamate at ~EC80; FLIPR calcium flux.
Outline: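 Calcium influx followed by FLIPR fluorescence after 5 min compound exposure and a further 5 min co-agonist challenge: 10 μM glycine with glutamate at ~EC80 (standard) or EC40 (HTS).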

Chain of human GluN1/GluN2B NMDA receptors (Q13224 27-1484, other chains not shown): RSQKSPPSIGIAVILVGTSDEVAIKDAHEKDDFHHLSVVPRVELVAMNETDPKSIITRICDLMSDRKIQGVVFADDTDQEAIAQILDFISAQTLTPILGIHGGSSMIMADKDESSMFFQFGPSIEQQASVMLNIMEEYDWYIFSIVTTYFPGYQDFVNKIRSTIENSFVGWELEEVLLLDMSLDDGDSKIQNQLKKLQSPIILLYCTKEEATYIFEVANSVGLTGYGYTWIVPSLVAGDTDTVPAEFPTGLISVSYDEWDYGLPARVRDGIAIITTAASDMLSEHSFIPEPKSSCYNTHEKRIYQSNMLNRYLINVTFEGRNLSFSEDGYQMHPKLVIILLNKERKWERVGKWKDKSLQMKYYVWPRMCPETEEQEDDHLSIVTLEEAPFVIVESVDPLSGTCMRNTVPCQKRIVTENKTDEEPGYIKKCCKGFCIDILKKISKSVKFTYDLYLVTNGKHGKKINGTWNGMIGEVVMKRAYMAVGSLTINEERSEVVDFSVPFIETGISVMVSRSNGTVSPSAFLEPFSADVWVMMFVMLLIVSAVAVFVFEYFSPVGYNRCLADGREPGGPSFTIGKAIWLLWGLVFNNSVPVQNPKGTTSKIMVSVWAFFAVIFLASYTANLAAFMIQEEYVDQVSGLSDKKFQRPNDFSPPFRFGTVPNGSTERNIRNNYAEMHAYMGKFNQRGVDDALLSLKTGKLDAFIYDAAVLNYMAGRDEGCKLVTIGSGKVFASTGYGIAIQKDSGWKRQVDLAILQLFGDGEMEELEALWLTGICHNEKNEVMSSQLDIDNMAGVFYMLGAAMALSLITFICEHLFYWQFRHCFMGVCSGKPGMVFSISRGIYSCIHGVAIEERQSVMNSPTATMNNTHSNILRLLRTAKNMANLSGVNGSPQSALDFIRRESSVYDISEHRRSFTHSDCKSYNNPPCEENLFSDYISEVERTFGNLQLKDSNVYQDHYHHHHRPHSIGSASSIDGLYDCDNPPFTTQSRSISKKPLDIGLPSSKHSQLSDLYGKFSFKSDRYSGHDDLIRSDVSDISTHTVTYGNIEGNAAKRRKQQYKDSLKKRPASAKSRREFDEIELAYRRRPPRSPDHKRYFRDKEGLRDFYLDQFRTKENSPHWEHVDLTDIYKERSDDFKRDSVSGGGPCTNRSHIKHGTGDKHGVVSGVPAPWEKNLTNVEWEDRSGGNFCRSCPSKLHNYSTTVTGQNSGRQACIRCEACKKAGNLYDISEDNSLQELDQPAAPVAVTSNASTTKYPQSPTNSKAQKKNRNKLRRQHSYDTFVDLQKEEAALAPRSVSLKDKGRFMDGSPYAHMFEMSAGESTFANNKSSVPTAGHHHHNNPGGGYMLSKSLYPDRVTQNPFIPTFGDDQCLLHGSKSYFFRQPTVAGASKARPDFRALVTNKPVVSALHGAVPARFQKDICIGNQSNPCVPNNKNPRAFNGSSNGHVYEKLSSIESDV

Question: How did the IC50 turn out when CN(C)c1ccnc(OCc2cn(-c3ccc(Cl)c(C(F)F)c3)nn2)n1 [Example 629, 2-[[1-[4-Chloro-3-(difluoromethyl)phenyl]triazol-4-yl]methoxy]-N,N-dimethyl-pyrimidin-4-amine] was run?
Answer: 0.007 µM

Question: How did the IC50 turn out when FC(F)c1cc(-n2cc(COc3ncc(C4CC4)cn3)nn2)ccc1Cl [Example 630, 2-[[1-[4-Chloro-3-(difluoromethyl)phenyl]triazol-4-yl]methoxy]-5-cyclopropyl-pyrimidine] was run?
Answer: 0.013 µM

Question: With FC(F)c1cc(-n2cc(COc3nccc(C4CC4)n3)nn2)ccc1Cl [Example 631, 2-[[1-[4-Chloro-3-(difluoromethyl)phenyl]triazol-4-yl]methoxy]-4-cyclopropyl-pyrimidine] as the compound, how does the IC50 read?
Answer: 0.042 µM

Question: With Cc1cnc(OCc2cn(-c3ccc(Cl)c(C(F)F)c3)nn2)nc1N [Example 632, 2-[[1-[4-chloro-3-(difluoromethyl)phenyl]triazol-4-yl]methoxy]-5-methyl-pyrimidin-4-amine] as the compound, how does the IC50 read?
Answer: 0.004 µM

Question: Which IC50 does the source give for Cc1cnc(OCc2cn(-c3ccc(Cl)c(C(F)F)c3)nn2)nc1N(C)C [Example 633, 2-[[1-[4-Chloro-3-(difluoromethyl)phenyl]triazol-4-yl]methoxy]-N,N,5-trimethyl-pyrimidin-4-amine] here?
Answer: 0.057 µM

Question: FC(F)c1cc(-n2cc(COc3nccc(N4CCCC4)n3)nn2)ccc1Cl [Example 634, 2-[[1-[4-Chloro-3-(difluoromethyl)phenyl]triazol-4-yl]methoxy]-4-pyrrolidin-1-yl-pyrimidine] was tested. Which IC50 did it give?
Answer: 0.012 µM

Question: How did the IC50 turn out when FC(F)c1cc(-n2cc(COc3nccc(N4CCCCC4)n3)nn2)ccc1Cl [Example 635, 2-[[1-[4-Chloro-3-(difluoromethyl)phenyl]triazol-4-yl]methoxy]-4-(1-piperidyl)pyrimidine] was run?
Answer: 0.169 µM

Question: With FCCOc1cnc(OCc2cn(-c3ccc(Cl)c(C(F)F)c3)nn2)nc1 [Example 636, 2-[[1-[4-Chloro-3-(difluoromethyl)phenyl]triazol-4-yl]methoxy]-5-(2-fluoroethoxy)pyrimidine] as the compound, how does the IC50 read?
Answer: 0.01 µM

Question: Which IC50 does the source give for FCCCc1cnc(OCc2cn(-c3ccc(Cl)c(C(F)F)c3)nn2)nc1 [Example 637, 2-[[1-[4-Chloro-3-(difluoromethyl)phenyl]triazol-4-yl]methoxy]-5-(3-fluoropropyl)pyrimidine] here?
Answer: 0.011 µM

Question: How did the IC50 turn out when Cc1cnc(OCc2cn(-c3ccc(N4CCC4)c(C(F)F)c3)nn2)nc1 [Example 638, 2-((1-(4-(Azetidin-1-yl)-3-(difluoromethyl)phenyl)-1H-1,2,3-triazol-4-yl)methoxy)-5-methylpyrimidine] was run?
Answer: 0.511 µM

Question: For Cc1c(F)ccc(-n2cc(COc3ncc(C(C)C)cn3)nn2)c1F [Example 639, 2-[[1-(2,4-Difluoro-3-methyl-phenyl)triazol-4-yl]methoxy]-5-isopropyl-pyrimidine], which IC50 is on record?
Answer: 0.052 µM

Question: With Cc1c(F)ccc(-n2cc(COc3nccc(C(C)C)n3)nn2)c1F [Example 640, 2-[[1-(2,4-Difluoro-3-methyl-phenyl)triazol-4-yl]methoxy]-4-isopropyl-pyrimidine] as the compound, how does the IC50 read?
Answer: 1.98 µM

Question: How did the IC50 turn out when Cc1c(F)ccc(-n2cc(COc3ncc(C(F)F)cn3)nn2)c1F [Example 641, 5-(Difluoromethyl)-2-[[1-(2,4-difluoro-3-methyl-phenyl)triazol-4-yl]methoxy]pyrimidine] was run?
Answer: 0.111 µM

Question: For Cc1c(F)ccc(-n2cc(COc3nccc(C(F)F)n3)nn2)c1F [Example 642, 4-(Difluoromethyl)-2-[[1-(2,4-difluoro-3-methyl-phenyl)triazol-4-yl]methoxy]pyrimidine], which IC50 is on record?
Answer: 2.21 µM

Question: For Cc1c(F)ccc(-n2cc(COc3ncc(C(F)(F)F)cn3)nn2)c1F [Example 643, 2-[[1-(2,4-Difluoro-3-methyl-phenyl)triazol-4-yl]methoxy]-5-(trifluoromethyl)pyrimidine], which IC50 is on record?
Answer: 0.2 µM

Question: For Cc1c(F)ccc(-n2cc(COc3ncc(C(C)(C)O)cn3)nn2)c1F [Example 644, 2-[2-[[1-(2,4-Difluoro-3-methyl-phenyl)triazol-4-yl]methoxy]pyrimidin-5-yl]propan-2-ol], which IC50 is on record?
Answer: 0.967 µM

Question: How did the IC50 turn out when COCc1ccnc(OCc2cn(-c3ccc(F)c(C)c3F)nn2)n1 [Example 645, 2-[[1-(2,4-Difluoro-3-methyl-phenyl)triazol-4-yl]methoxy]-4-(methoxymethyl)pyrimidine] was run?
Answer: 0.799 µM

Question: Cc1c(F)ccc(-n2cc(COc3ncc(OC(F)F)cn3)nn2)c1F [Example 646, 5-(Difluoromethoxy)-2-[[1-(2,4-difluoro-3-methyl-phenyl)triazol-4-yl]methoxy]pyrimidine] was tested. Which IC50 did it give?
Answer: 0.099 µM

Question: Cc1c(F)ccc(-n2cc(COc3ncc(C4CC4)cn3)nn2)c1F [Example 647, 5-Cyclopropyl-2-[[1-(2,4-difluoro-3-methyl-phenyl)triazol-4-yl]methoxy]pyrimidine] was tested. Which IC50 did it give?
Answer: 0.034 µM

Question: For Cc1c(F)ccc(-n2cc(COc3nccc(C4CC4)n3)nn2)c1F [Example 648, 4-Cyclopropyl-2-[[1-(2,4-difluoro-3-methyl-phenyl)triazol-4-yl]methoxy]pyrimidine], which IC50 is on record?
Answer: 0.592 µM

Question: How did the IC50 turn out when Cc1nc(OCc2cn(-c3ccc(F)c(C)c3F)nn2)ncc1F [Example 649, 2-[[1-(2,4-Difluoro-3-methyl-phenyl)triazol-4-yl]methoxy]-5-fluoro-4-methyl-pyrimidine] was run?
Answer: 0.152 µM

Question: With Cc1nc(OCc2cn(-c3ccc(F)c(C)c3F)nn2)ncc1Cl [Example 650, 5-Chloro-2-[[1-(2,4-difluoro-3-methyl-phenyl)triazol-4-yl]methoxy]-4-methyl-pyrimidine] as the compound, how does the IC50 read?
Answer: 0.005 µM

Question: With Cc1cnc(OCc2cn(-c3ccc(F)c(C)c3F)nn2)nc1N [Example 651, 2-[[1-(2,4-Difluoro-3-methyl-phenyl)triazol-4-yl]methoxy]-5-methyl-pyrimidin-4-amine] as the compound, how does the IC50 read?
Answer: 0.262 µM

Question: Fc1ccc(-n2cc(COc3ncc(C(F)(F)F)cn3)nn2)c(F)c1C(F)F [Example 652, 2-[[1-[3-(Difluoromethyl)-2,4-difluoro-phenyl]triazol-4-yl]methoxy]-5-(trifluoromethyl)pyrimidine] was tested. Which IC50 did it give?
Answer: 0.112 µM

Question: For Cc1cc(-n2cc(COc3ncc(Cl)cn3)nn2)c(F)cc1F [Example 653, 5-Chloro-2-[[1-(2,4-difluoro-5-methyl-phenyl)triazol-4-yl]methoxy]pyrimidine], which IC50 is on record?
Answer: 1.49 µM

Question: Which IC50 does the source give for Cc1cnc(OCc2cn(-c3cc(C)c(F)cc3F)nn2)nc1 [Example 654, 2-[[1-(2,4-Difluoro-5-methyl-phenyl)triazol-4-yl]methoxy]-5-methyl-pyrimidine] here?
Answer: 0.979 µM

Question: How did the IC50 turn out when CCc1cnc(OCc2cn(-c3cc(C)c(F)cc3F)nn2)nc1 [Example 655, 2-[[1-(2,4-Difluoro-5-methyl-phenyl)triazol-4-yl]methoxy]-5-ethyl-pyrimidine] was run?
Answer: 0.507 µM

Question: Cc1cc(-n2cc(COc3ncc(C(F)F)cn3)nn2)c(F)cc1F [Example 656, 5-(Difluoromethyl)-2-[[1-(2,4-difluoro-5-methyl-phenyl)triazol-4-yl]methoxy]pyrimidine] was tested. Which IC50 did it give?
Answer: 1.51 µM

Question: For Cc1cc(-n2cc(COc3ncc(Cl)c(C)n3)nn2)c(F)cc1F [Example 657, 5-Chloro-2-[[1-(2,4-difluoro-5-methyl-phenyl)triazol-4-yl]methoxy]-4-methyl-pyrimidine], which IC50 is on record?
Answer: 0.781 µM

Question: For Cc1cc(-n2cc(COc3ncc(C4CC4)cn3)nn2)c(F)cc1F [Example 658, 5-Cyclopropyl-2-[[1-(2,4-difluoro-5-methyl-phenyl)triazol-4-yl]methoxy]pyrimidine], which IC50 is on record?
Answer: 0.424 µM

Question: How did the IC50 turn out when Cc1cccc(-n2cc(COc3ncc(Cl)cn3)nn2)n1 [Example 659, 5-Chloro-2-[[1-(6-methyl-2-pyridyl)triazol-4-yl]methoxy]pyrimidine] was run?
Answer: > 2.99 µM

Question: CCc1cnc(OCc2cn(-c3cccc(C)n3)nn2)nc1 [Example 660, 5-Ethyl-2-[[1-(6-methyl-2-pyridyl)triazol-4-yl]methoxy]pyrimidine] was tested. Which IC50 did it give?
Answer: > 2.99 µM

Question: Cc1cccc(-n2cc(COc3ncc(Cl)c(C)n3)nn2)n1 [Example 661, 5-Chloro-4-methyl-2-[[1-(6-methyl-2-pyridyl)triazol-4-yl]methoxy]pyrimidine] was tested. Which IC50 did it give?
Answer: > 2.99 µM

Question: How did the IC50 turn out when Cc1cnc(OCc2cn(-c3cc(C)ccn3)nn2)nc1 [Example 662, 5-Methyl-2-[[1-(4-methyl-2-pyridyl)triazol-4-yl]methoxy]pyrimidine] was run?
Answer: > 2.99 µM

Question: CCc1cnc(OCc2cn(-c3cc(C)ccn3)nn2)nc1 [Example 663, 5-Ethyl-2-[[1-(4-methyl-2-pyridyl)triazol-4-yl]methoxy]pyrimidine] was tested. Which IC50 did it give?
Answer: 2.45 µM

Question: For CCc1cnc(OCc2cn(-c3ccnc(C)c3)nn2)nc1 [Example 664, 5-Ethyl-2-[[1-(2-methyl-4-pyridyl)triazol-4-yl]methoxy]pyrimidine], which IC50 is on record?
Answer: 0.169 µM

Question: With CCc1cnc(OCc2cn(-c3ccnc(Br)c3)nn2)nc1 [Example 665, 2-[[1-(2-Bromo-4-pyridyl)triazol-4-yl]methoxy]-5-ethyl-pyrimidine] as the compound, how does the IC50 read?
Answer: 0.261 µM

Question: With Cc1cnc(OCc2cn(-c3ccnc(C(F)(F)F)c3)nn2)nc1 [Example 666, 5-Methyl-2-[[1-[2-(trifluoromethyl)-4-pyridyl]triazol-4-yl]methoxy]pyrimidine] as the compound, how does the IC50 read?
Answer: 0.668 µM

Question: Which IC50 does the source give for CCc1cnc(OCc2cn(-c3ccnc(C(F)(F)F)c3)nn2)nc1 [Example 667, 5-Ethyl-2-[[1-[2-(trifluoromethyl)-4-pyridyl]triazol-4-yl]methoxy]pyrimidine] here?
Answer: 0.184 µM

Question: With Cc1nc(OCc2cn(-c3ccc(C(F)(F)F)s3)nn2)ncc1F [Example 668, 5-Fluoro-4-methyl-2-((1-(5-(trifluoromethyl)thiophen-2-yl)-1H-1,2,3-triazol-4-yl)methoxy)pyrimidine] as the compound, how does the IC50 read?
Answer: 0.008 µM

Question: For COc1cnc(OCc2cn(-c3ccc(C(F)(F)F)s3)nn2)nc1 [Example 669, 5-Methoxy-2-((1-(5-(trifluoromethyl)thiophen-2-yl)-1H-1,2,3-triazol-4-yl)methoxy)pyrimidine], which IC50 is on record?
Answer: 0.004 µM

Question: With FC(F)(F)c1cnc(OCc2cn(-c3ccc(C(F)(F)F)s3)nn2)nc1 [Example 670, 5-(Trifluoromethyl)-2-((1-(5-(trifluoromethyl)thiophen-2-yl)-1H-1,2,3-triazol-4-yl)methoxy)pyrimidine] as the compound, how does the IC50 read?
Answer: 0.063 µM
